Patent publication US20140057901A1, “XANTHINE DERIVATIVES, THE PREPARATION THEREOF AND THEIR USE AS PHARMACEUTICAL COMPOSITIONS” (Boehringer Ingelheim Pharma GmbH & Co. KG, priority 2001, published 2014)

Q: With `CC(C)=CCn1c(N2CCC(CN)CC2)nc2c1c(=O)n(C)c(=O)n2C` [Example 2(105), 1,3-dimethyl-7-(3-methyl-2-buten-1-yl)-8-(4-aminomethyl-piperidin-1-yl)-xanthine] as the molecule, how does the melting point read?
A: Its melting point is 110 to 112 °C.
